In PubChem BioAssay (NCI):
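Growth conditions: 96-well plates. Treatment: test compound, 48 hours, 5 concentrations. Analysis: linear interpolation between bracketing concentrations; unreached endpoints set to highest concentration. TGI is the concentration that stops growth completely.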

Tests used:
Test in all cases: inhibition of tumour cell growth, NCI panel, 48 h
OVCAR-8 ovarian = test system: OVCAR-8 ovarian
HOP-62 NSCLC = test system: HOP-62 NSCLC
SK-MEL-28 melanoma = test system: SK-MEL-28 melanoma
OVCAR-4 ovarian = test system: OVCAR-4 ovarian
RPMI-8226 leukemia = test system: RPMI-8226 leukemia
A549 NSCLC = test system: A549 NSCLC
MCF7 breast = test system: MCF7 breast
SF-268 CNS = test system: SF-268 CNS
MDA-MB-435 = test system: MDA-MB-435
HOP-92 NSCLC = test system: HOP-92 NSCLC
SK-MEL-2 melanoma = test system: SK-MEL-2 melanoma
M14 melanoma = test system: M14 melanoma
MDA-MB-231 breast = test system: MDA-MB-231 breast
OVCAR-3 ovarian = test system: OVCAR-3 ovarian
HCT-116 colon = test system: HCT-116 colon
RXF 393 renal = test system: RXF 393 renal
K-562 leukemia = test system: K-562 leukemia
U251 CNS = test system: U251 CNS
UACC-257 melanoma = test system: UACC-257 melanoma
IGROV1 ovarian = test system: IGROV1 ovarian
EKVX NSCLC = test system: EKVX NSCLC
SR leukemia = test system: SR leukemia
TK-10 renal = test system: TK-10 renal
NCI/ADR-RES ovarian = test system: NCI/ADR-RES ovarian
CCRF-CEM leukemia = test system: CCRF-CEM leukemia
COLO 205 colon = test system: COLO 205 colon
MALME-3M melanoma = test system: MALME-3M melanoma
SK-OV-3 ovarian = test system: SK-OV-3 ovarian
CAKI-1 renal = test system: CAKI-1 renal
BT-549 breast = test system: BT-549 breast
LOX IMVI melanoma = test system: LOX IMVI melanoma
HCC-2998 colon = test system: HCC-2998 colon
T-47D breast = test system: T-47D breast
PC-3 prostate = test system: PC-3 prostate
HL-60(TB) leukemia = test system: HL-60(TB) leukemia
SK-MEL-5 melanoma = test system: SK-MEL-5 melanoma
ACHN renal = test system: ACHN renal
NCI-H226 lung = test system: NCI-H226 lung
DU-145 prostate = test system: DU-145 prostate
SF-295 CNS = test system: SF-295 CNS
NCI-H23 lung = test system: NCI-H23 lung
SNB-75 CNS = test system: SNB-75 CNS
SN12C renal = test system: SN12C renal
HCT-15 colon = test system: HCT-15 colon
UO-31 renal = test system: UO-31 renal
SW-620 colon = test system: SW-620 colon
HS 578T breast = test system: HS 578T breast
HT29 colon = test system: HT29 colon
786-0 renal = test system: 786-0 renal
KM12 colon = test system: KM12 colon
NCI-H522 lung = test system: NCI-H522 lung
NCI-H460 lung = test system: NCI-H460 lung
A498 renal = test system: A498 renal
MDA-N = test system: MDA-N
OVCAR-5 ovarian = test system: OVCAR-5 ovarian
MOLT-4 leukemia = test system: MOLT-4 leukemia
SF-539 CNS = test system: SF-539 CNS
UACC-62 melanoma = test system: UACC-62 melanoma
SNB-19 CNS = test system: SNB-19 CNS

COc1cccc(N=Cc2cc(OC)c(OC)c(OC)c2)c1
TGI (OVCAR-8 ovarian): > 100 µM | TGI (HOP-62 NSCLC): > 100 µM | TGI (SK-MEL-28 melanoma): > 100 µM | TGI (OVCAR-4 ovarian): > 100 µM | TGI (RPMI-8226 leukemia): > 100 µM | TGI (A549 NSCLC): > 100 µM | TGI (MCF7 breast): > 100 µM | TGI (SF-268 CNS): > 100 µM | TGI (MDA-MB-435): > 100 µM | TGI (HOP-92 NSCLC): > 100 µM | TGI (SK-MEL-2 melanoma): > 100 µM | TGI (M14 melanoma): > 100 µM | TGI (MDA-MB-231 breast): > 100 µM | TGI (OVCAR-3 ovarian): > 100 µM | TGI (HCT-116 colon): > 100 µM | TGI (RXF 393 renal): > 100 µM | TGI (K-562 leukemia): > 100 µM | TGI (U251 CNS): > 100 µM | TGI (UACC-257 melanoma): > 100 µM | TGI (IGROV1 ovarian): > 100 µM | TGI (EKVX NSCLC): > 100 µM | TGI (SR leukemia): > 100 µM | TGI (TK-10 renal): > 100 µM | TGI (NCI/ADR-RES ovarian): > 100 µM | TGI (CCRF-CEM leukemia): > 100 µM | TGI (COLO 205 colon): > 100 µM | TGI (MALME-3M melanoma): > 100 µM | TGI (SK-OV-3 ovarian): > 100 µM | TGI (CAKI-1 renal): > 100 µM | TGI (BT-549 breast): > 100 µM | TGI (LOX IMVI melanoma): > 100 µM | TGI (HCC-2998 colon): > 100 µM | TGI (T-47D breast): > 100 µM | TGI (PC-3 prostate): > 100 µM | TGI (HL-60(TB) leukemia): > 100 µM | TGI (SK-MEL-5 melanoma): > 100 µM | TGI (ACHN renal): > 100 µM | TGI (NCI-H226 lung): > 100 µM | TGI (DU-145 prostate): > 100 µM | TGI (SF-295 CNS): > 100 µM | TGI (NCI-H23 lung): > 100 µM | TGI (SNB-75 CNS): > 100 µM | TGI (SN12C renal): > 100 µM | TGI (HCT-15 colon): > 100 µM | TGI (UO-31 renal): > 100 µM | TGI (SW-620 colon): > 100 µM | TGI (HS 578T breast): > 100 µM | TGI (HT29 colon): > 100 µM | TGI (786-0 renal): > 100 µM | TGI (KM12 colon): > 100 µM | TGI (NCI-H522 lung): > 100 µM | TGI (NCI-H460 lung): > 100 µM | TGI (A498 renal): > 100 µM | TGI (MDA-N): > 100 µM | TGI (OVCAR-5 ovarian): > 100 µM | TGI (MOLT-4 leukemia): > 100 µM | TGI (SF-539 CNS): > 100 µM

Cc1cc(Cc2cc(Cc3cc(C)cc(C(C)(C)C)c3O)c(C)cc2C)c(O)c(C(C)(C)C)c1
TGI (OVCAR-8 ovarian): 75.4 µM | TGI (HOP-62 NSCLC): 36.2 µM | TGI (SK-MEL-28 melanoma): 37 µM | TGI (OVCAR-4 ovarian): 25.4 µM | TGI (RPMI-8226 leukemia): 65 µM | TGI (A549 NSCLC): 30.8 µM | TGI (MCF7 breast): 27.2 µM | TGI (SF-268 CNS): 35.4 µM | TGI (MDA-MB-435): 26.2 µM | TGI (HOP-92 NSCLC): 29.2 µM | TGI (SK-MEL-2 melanoma): > 100 µM | TGI (M14 melanoma): 33.8 µM | TGI (MDA-MB-231 breast): > 100 µM | TGI (OVCAR-3 ovarian): 32.9 µM | TGI (HCT-116 colon): 30 µM | TGI (RXF 393 renal): 24.8 µM | TGI (K-562 leukemia): 45 µM | TGI (U251 CNS): > 100 µM | TGI (UACC-257 melanoma): 34.8 µM | TGI (IGROV1 ovarian): 40.5 µM | TGI (EKVX NSCLC): 34.5 µM | TGI (SR leukemia): 70.6 µM | TGI (TK-10 renal): 55.1 µM | TGI (NCI/ADR-RES ovarian): 42.4 µM | TGI (CCRF-CEM leukemia): 48.3 µM | TGI (COLO 205 colon): 36.7 µM | TGI (MALME-3M melanoma): 31.7 µM | TGI (SK-OV-3 ovarian): 35.6 µM | TGI (CAKI-1 renal): 42.9 µM | TGI (BT-549 breast): 40.6 µM | TGI (LOX IMVI melanoma): 41.9 µM | TGI (HCC-2998 colon): 27.1 µM | TGI (UACC-62 melanoma): 28.1 µM | TGI (T-47D breast): 34.8 µM | TGI (PC-3 prostate): > 100 µM | TGI (HL-60(TB) leukemia): 46.9 µM | TGI (SK-MEL-5 melanoma): 30.2 µM | TGI (ACHN renal): 30.3 µM | TGI (NCI-H226 lung): 31.5 µM | TGI (DU-145 prostate): 27.6 µM | TGI (SF-295 CNS): 39.4 µM | TGI (NCI-H23 lung): 37.9 µM | TGI (SNB-75 CNS): 23.9 µM | TGI (SN12C renal): 31.7 µM | TGI (HCT-15 colon): 42 µM | TGI (UO-31 renal): 32 µM | TGI (SW-620 colon): 40.8 µM | TGI (HS 578T breast): 52 µM | TGI (HT29 colon): 34.7 µM | TGI (786-0 renal): 31.6 µM | TGI (SNB-19 CNS): 31.9 µM | TGI (KM12 colon): 34.7 µM | TGI (NCI-H522 lung): 34 µM | TGI (A498 renal): 30.6 µM | TGI (MDA-N): 35 µM | TGI (OVCAR-5 ovarian): 42.9 µM | TGI (MOLT-4 leukemia): > 100 µM

CC(CC(=O)O)(CC(=O)O)c1ccccc1
TGI (OVCAR-8 ovarian): > 100 µM | TGI (HOP-62 NSCLC): > 100 µM | TGI (SK-MEL-28 melanoma): > 100 µM | TGI (OVCAR-4 ovarian): > 100 µM | TGI (RPMI-8226 leukemia): > 100 µM | TGI (A549 NSCLC): > 100 µM | TGI (MCF7 breast): > 100 µM | TGI (SF-268 CNS): > 100 µM | TGI (MDA-MB-435): > 100 µM | TGI (HOP-92 NSCLC): > 100 µM | TGI (SK-MEL-2 melanoma): > 100 µM | TGI (M14 melanoma): > 100 µM | TGI (MDA-MB-231 breast): > 100 µM | TGI (OVCAR-3 ovarian): > 100 µM | TGI (HCT-116 colon): > 100 µM | TGI (RXF 393 renal): > 100 µM | TGI (K-562 leukemia): > 100 µM | TGI (U251 CNS): > 100 µM | TGI (UACC-257 melanoma): > 100 µM | TGI (IGROV1 ovarian): > 100 µM | TGI (EKVX NSCLC): > 100 µM | TGI (SR leukemia): > 100 µM | TGI (TK-10 renal): > 100 µM | TGI (NCI/ADR-RES ovarian): > 100 µM | TGI (CCRF-CEM leukemia): > 100 µM | TGI (COLO 205 colon): > 100 µM | TGI (MALME-3M melanoma): > 100 µM | TGI (SK-OV-3 ovarian): > 100 µM | TGI (CAKI-1 renal): > 100 µM | TGI (BT-549 breast): > 100 µM | TGI (LOX IMVI melanoma): > 100 µM | TGI (HCC-2998 colon): > 100 µM | TGI (UACC-62 melanoma): > 100 µM | TGI (T-47D breast): > 100 µM | TGI (PC-3 prostate): > 100 µM | TGI (HL-60(TB) leukemia): > 100 µM | TGI (SK-MEL-5 melanoma): > 100 µM | TGI (ACHN renal): > 100 µM | TGI (NCI-H226 lung): > 100 µM | TGI (DU-145 prostate): > 100 µM | TGI (SF-295 CNS): > 100 µM | TGI (NCI-H23 lung): > 100 µM | TGI (SNB-75 CNS): > 100 µM | TGI (SN12C renal): > 100 µM | TGI (HCT-15 colon): > 100 µM | TGI (UO-31 renal): > 100 µM | TGI (SW-620 colon): > 100 µM | TGI (HS 578T breast): > 100 µM | TGI (HT29 colon): > 100 µM | TGI (786-0 renal): > 100 µM | TGI (SNB-19 CNS): > 100 µM | TGI (KM12 colon): > 100 µM | TGI (NCI-H522 lung): > 100 µM | TGI (NCI-H460 lung): > 100 µM | TGI (A498 renal): > 100 µM | TGI (MDA-N): > 100 µM | TGI (OVCAR-5 ovarian): > 100 µM
